{"source": "patent US20250042890A1", "about": "“METHIONINE ADENOSYLTRANSFERASE 2a (MAT2A) INHIBITORS AND USES THEREOF” (Insilico Medicine IP Limited, priority 2021, published 2025)", "data": [{"target": "MAT2A (Homo sapiens (Human), UniProt P31153)", "sequence (P31153 whole entry, species assumed)": "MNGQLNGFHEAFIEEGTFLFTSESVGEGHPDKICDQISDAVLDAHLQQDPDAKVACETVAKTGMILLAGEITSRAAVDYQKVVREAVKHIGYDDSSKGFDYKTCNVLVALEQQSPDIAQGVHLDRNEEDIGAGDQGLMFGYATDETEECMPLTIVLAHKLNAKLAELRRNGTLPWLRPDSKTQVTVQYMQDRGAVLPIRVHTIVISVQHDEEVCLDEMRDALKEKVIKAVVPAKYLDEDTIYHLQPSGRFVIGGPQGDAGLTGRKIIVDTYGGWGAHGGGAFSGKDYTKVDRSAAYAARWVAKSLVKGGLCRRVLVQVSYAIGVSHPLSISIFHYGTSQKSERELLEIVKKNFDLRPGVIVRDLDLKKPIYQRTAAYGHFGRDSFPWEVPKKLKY", "assay": "MAT2A Biochemical Assay", "details": "Biomol Green readout O.D.620; 1 uM start, 3-fold dilution, 10 doses; read-out: MAT2A enzymatic IC50", "description": "Example A: MAT2A Biochemical Assay\nCompounds described herein were tested as follows:\n• (1). Prepared 1×Assay buffer. • (2). Preparation of compound concentration gradient: the compounds test condition were 1 uM start, 3-fold dilution, 10 doses, singlet or duplicate. 100× concentration compounds were prepared in 384-well plate. Then used Echo 550 to transfer 250 nl to a 384-reaction plate for later use. Added 250 nl of 100% DMSO to the negative and positive control wells. • (3). Prepared 1.67× final concentration enzyme solution with 1×Assay buffer. • (4). Added 15 μl of 1.67× Enzyme solution to the compound wells and positive control wells; added 15 μl of 1 Assay buffer to the negative control wells. • (5). Centrifuged at 1000 rpm for 30 seconds and incubate for 15 minutes. • (6). Prepared 2.5× final concentration Substrate mix solution with 1×Assay buffer. • (7). Added 10 μl of 2.5× final concentration Substrate mix solution to start the reaction. • (8). Centrifuged at 1000 rpm for 30 seconds and incubate for 150 minutes. • (9). Added 50 μl Biomol Green to stop the reaction, centrifuge at 1000 rpm for 30 seconds and incubate for 15 minutes. read O.D.620, process data.\n• (1) Using GraphPad Prism 5. • (2) % Inh=(Max signal−Compound signal)/(Max signal−Min signal)*100. • (3) Max signal was obtained from the positive control wells. • (4) Min signal was obtained from the negative control wells.", "units": {"IC50": "nM"}, "values": [{"smiles": "C#CC1(Nc2nc(=O)n(-c3cccnc3C)c3cc(C(F)(F)F)cc(OC)c23)CCC1", "note": "[Example 50]", "IC50": "< 50"}, {"smiles": "C#CCN(C)c1nc(=O)n(-c2cccnc2)c2cc(C(F)(F)F)ccc12", "note": "[Example 51]", "IC50": "< 50"}, {"smiles": "C#CCNc1nc(=O)n(-c2c(C)ccnc2C)c2cc(C(F)(F)F)ccc12", "note": "[Example 52, 1-(2,4-dimethylpyridin-3-yl)-4-(prop-2-yn-1-ylamino)-7-(trifluoromethyl)quinazolin-2 (11H)-one]", "IC50": "< 50"}, {"smiles": "C#CCNc1nc(=O)n(-c2cnccn2)c2cc(C(F)(F)F)ccc12", "note": "[Example 53, 4-(prop-2-yn-1-ylamino)-1-(pyrazin-2-yl)-7-(trifluoromethyl)quinazolin-2 (1H)-one]", "IC50": "< 50"}, {"smiles": "C#CCNc1nc(=O)n(-c2cnccn2)c2cc(C(F)(F)F)cc(OC)c12", "note": "[Example 54, 5-methoxy-4-(prop-2-yn-1-ylamino)-1-(pyrazin-2-yl)-7-(trifluoromethyl)quinazolin-2 (1H)-one]", "IC50": "< 50"}, {"smiles": "C#CC1(Nc2nc(=O)n(-c3cccnc3)c3cc(C(F)(F)F)cnc23)CC1", "note": "[Example 56, 4-((1-ethynylcyclopropyl)amino)-1-(pyridin-3-yl)-7-(trifluoromethyl)pyrido[3,2-d]pyrimidin-2 (1H)-one]", "IC50": "> 1000"}, {"smiles": "C#CCNc1nc(=O)n(-c2cccnc2)c2nc(C(F)(F)F)ccc12", "note": "[Example 57, 4-(prop-2-yn-1-ylamino)-1-(pyridin-3-yl)-7-(trifluoromethyl)pyrido[2,3-d]pyrimidin-2 (1H)-one]", "IC50": "< 50"}, {"smiles": "C#CCNc1nc(=O)n(-c2cccnc2)c2nc(C(F)(F)F)ncc12", "note": "[Example 61, 4-(prop-2-yn-1-ylamino)-1-(pyridin-3-yl)-7-(trifluoromethyl)pyrimido[4,5-d]pyrimidin-2 (1H)-one]", "IC50": "< 50"}, {"smiles": "C#CCNc1nc(=O)n(-c2cccnn2)c2nc(C(F)(F)F)ccc12", "note": "[Example 63, 4-(prop-2-yn-1-ylamino)-1-(pyridazin-3-yl)-7-(trifluoromethyl)pyrido[2,3-d]pyrimidin-2 (1H)-one]", "IC50": "< 50"}, {"smiles": "C#CC(C)Nc1nc(=O)n(-c2cccnc2)c2cc(C(F)(F)F)ccc12", "note": "(stereo not drawn) [Example 64]", "IC50": "< 50"}, {"smiles": "C#CC(C)Nc1nc(=O)n(-c2cccnc2)c2cc(Cl)cc(OC)c12", "note": "(stereo not drawn) [Example 65]", "IC50": "< 50"}, {"smiles": "C#CC1(Nc2nc(=O)n(-c3cccnc3)c3cc(Cl)cc(OC)c23)CC1", "note": "[Example 66]", "IC50": "< 50"}, {"smiles": "C#CC1(Nc2nc(=O)n(-c3cccnc3)c3cc(C(F)(F)F)ccc23)CC1", "note": "[Example 67]", "IC50": "< 50"}, {"smiles": "C#CC1(Nc2nc(=O)n(-c3cccnc3)c3nc(C(F)(F)F)ccc23)CC1", "note": "[Example 68, 4-((1-ethynylcyclopropyl)amino)-1-(pyridin-3-yl)-7-(trifluoromethyl)pyrido[2,3-d]pyrimidin-2 (1H)-one]", "IC50": "< 50"}, {"smiles": "C#CC1(Nc2nc(=O)n(-c3cnccn3)c3cc(C(F)(F)F)ccc23)CC1", "note": "[Example 69, 4-((1-ethynylcyclopropyl)amino)-1-(pyrazin-2-yl)-7-(trifluoromethyl)quinazolin-2 (1H)-one]", "IC50": "< 50"}, {"smiles": "C#CC1(Nc2nc(=O)n(-c3cccnn3)c3nc(C(F)(F)F)ccc23)CC1", "note": "[Example 70, 4-((1-ethynylcyclopropyl)amino)-1-(pyridazin-3-yl)-7-(trifluoromethyl)pyrido[2,3-d]pyrimidin-2 (1H)-one]", "IC50": "< 50"}, {"smiles": "C=CCNc1nc(=O)n(-c2cccnc2)c2cc(Cl)cc(OC)c12", "note": "[Example 73]", "IC50": "< 50"}, {"smiles": "C=CCNc1nc(=O)n(-c2cccnc2C)c2cc(Cl)cc(OC)c12", "note": "[Example 74]", "IC50": "< 50"}, {"smiles": "C=CC1(Nc2nc(=O)n(-c3cccnc3C)c3cc(Cl)cc(OC)c23)CC1", "note": "[Example 75, 7-chloro-5-methoxy-1-(2-methylpyridin-3-yl)-4-((1-vinylcyclopropyl)amino)quinazolin-2 (1H)-one]", "IC50": "< 50"}, {"smiles": "C=CCNc1nc(=O)n(-c2cccnc2)c2cc(C(F)(F)F)ccc12", "note": "[Example 76]", "IC50": "< 50"}, {"smiles": "C=CCNc1nc(=O)n(-c2cccnc2C)c2cc(C(F)(F)F)cc(OC)c12", "note": "[Example 77]", "IC50": "< 50"}]}]}
